compound: Cc1ccc(NC(=O)c2ccc(CN3CCN(C)CC3)cc2)cc1Nc1nc(-c2cccnc2)cs1 [Masitinib] + CC(C)C[C@H](NC(=O)[C@H](Cc1ccccc1)NC(=O)c1cnccn1)B(O)O [Bortezomib] (partner 0.002 µM); test: relative viability (nuclei count vs DMSO), 5 days (fraction); higher = more cells survive; settings: first compound 0.01 µM
Outline: (§1)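 A single step with final 0.05% Triton X-100, 1% formaldehyde and 1 ug/ml Hoechst fixed the cells and stained nuclei 5 days after treatment. Lung cancer cell lines in 1536-well plates had been treated by pin tool the day after seeding with one drug alone or a fixed anchor-drug dose plus five library-drug doses (not always all listed) in √10 steps, and nuclei were counted on 4× images. Relative viability is the ratio of nuclei in treated wells to nuclei in vehicle wells, taken as the median of duplicate plates.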

Cell Line	relative viability
NCI-H1650	0.198
NCI-H1993	1.01
SK-LU-1	1.2
NCI-H661	0.867
RERF-LC-KJ	0.939

same assay, conditions: first compound 0.03162 µM

Cell Line	relative viability
NCI-H1650	0.172
SK-LU-1	1.13
NCI-H661	0.74
RERF-LC-KJ	1

same assay, conditions: first compound 0.1 µM

Cell Line	relative viability
NCI-H1650	0.186
NCI-H1993	1.21
SK-LU-1	1.28
NCI-H661	0.927
RERF-LC-KJ	1.07

same assay, conditions: first compound 0.3162 µM

Cell Line	relative viability
NCI-H1650	0.215
NCI-H1993	1.03
SK-LU-1	1.24
NCI-H661	0.761
RERF-LC-KJ	1.09

same assay, conditions: first compound 1 µM

Cell Line	relative viability
NCI-H1650	0.212
NCI-H1993	1.03
SK-LU-1	0.899
NCI-H661	0.585
RERF-LC-KJ	1

compound: CC1=CC(=CC=C1)NC2=NC(=CS2)C3=CC=NC=C3 + Nc1nc2[nH]cc(CCc3ccc(C(=O)N[C@@H](CCC(=O)O)C(=O)O)cc3)c2c(=O)[nH]1 [Pemetrexed] (partner 0.2 µM); test: as above; settings: first compound 0.08 µM
Outline: as §1

Cell Line	relative viability
NCI-H1650	0.341
NCI-H1993	0.507
SK-LU-1	0.906
NCI-H661	0.876
RERF-LC-KJ	0.518

same assay, conditions: first compound 0.253 µM

Cell Line	relative viability
NCI-H1650	0.358
NCI-H1993	0.517
SK-LU-1	1.03
NCI-H661	0.959
RERF-LC-KJ	0.488

same assay, conditions: first compound 0.8 µM

Cell Line	relative viability
NCI-H1650	0.399
NCI-H1993	0.618
SK-LU-1	0.691
NCI-H661	0.889
RERF-LC-KJ	0.506

same assay, conditions: first compound 2.53 µM

Cell Line	relative viability
NCI-H1650	0.346
NCI-H1993	0.547
SK-LU-1	0.997
NCI-H661	0.907
RERF-LC-KJ	0.361

same assay, conditions: first compound 8 µM

Cell Line	relative viability
NCI-H1650	0.323
NCI-H1993	0.578
SK-LU-1	0.937
NCI-H661	0.871
RERF-LC-KJ	0.474

Source: the supplement of paper PMC10307832
